Key:
Type in all cases: cell-based, mouse
EBM^9 explants = assay: Neural crest formation from EBM^9 explants
Method: Sox 10 probes were transcribed from pSox10E.1 (obtained from Dr. Peter Koopman, IMB, Brisbane, Australia). Anti-sense and sense probes were transcribed from HindIII or BamHI cut pSox10E.1 with […] or T3 RNA polymerase respectively.
EBM^9 were collected, washed in PBS, treated with 0.5 mM EGTA pH 7.5 for 3 minutes, washed in PBS and disaggregated to small clumps (20-200 cells) by trituration. Cell clumps were allowed to settle and single cells liberated during trituration were removed with the supernatant before plating onto tissue culture grade plasticware which had been coated with cellular fibronectin (1 μg/cm^2; obtained from M. D. Bettess, Department of Biochemistry, Adelaide University, Australia) and allowed to dry. Cells were cultured in Hams F12 containing 3% FCS and 10 ng/ml FGF2 and supplemented with either 0.1% 25 μM staurosporine (Sigma) in DMSO (final concentration, 25 nM) or 0.1% DMSO. Cellular aggregates were allowed to differentiate for 48 hours before fixation in 4% PFA for 30 minutes.

ES cells [1] = assay: Morphology of ES cell aggregates in suspension culture; settings: medium supplemented with 100 units of LIF; data not shown
Method: (§1) All cell aggregates were formed from single cell suspensions (1×10^5 cells/ml) of ES or EPL cells cultured in bacterial petri dishes. ES cell and EPL cell embryoid bodies (EB and EPLEB respectively) were formed as described in Lake et al. (2000). EBM, cell aggregates formed and maintained in MEDII, were formed from ES cells aggregated in IC:DMEM (DMEM (Gibco BRL #12800) with 10% foetal calf serum (FCS; Commonwealth Serum Laboratories), […] gentamycin, 1 mM L-glutamine and 0.1 mM B-mercaptoethanol (B-ME)) supplemented with 50% MEDII. Aggregates were divided 1 in 2 on days 2 and 4, and medium was changed on days 2 and 4 and then daily until collection. […] The time in days from formation of aggregates was denoted by superscript with the day of formation denoted as day 0. For example, EBM 5 days after formation are represented as EBM^5.
For continued suspension culture of EB and EBM, aggregates on day 7 were transferred to serum free medium (50% DMEM, 50% Hams F12 (Gibco BRL # 11765) supplemented with 1× ITSS supplement (Boehringer Mannhiem) and 10 ng/ml FGF2 (Peprotech Inc.)).
EB^4 and EBM^4 were fixed with 4% PFA for 30 minutes before embedding in paraffin wax and sectioning as described in Hogan et al., 1994. 7 μm sections were stained with haematoxylin:eosin as described by Kaufman, 1992 or with Hoescht […] (5 μg/ml) in PBS; Sigma) for 5 minutes.

ES cells [2] = assay: Differentiation potential of seeded ES cell aggregates (neurons, beating cardiocytes); settings: 10-20 ng/ml added to the medium from day 4
Method: as §1
For adherent culture, aggregates were seeded onto gelatin treated tissue culture grade plasticware (Falcon) on day 7 of development in 500 μl DMEM supplemented with 10% FCS (Commonwealth serum Laboratories). […]
EB^7 and EBM^7 were seeded as described above and assessed on days 8, 10, 12 and 14 for the presence of neurons, identified morphologically by the presence of axonal projections (and confirmed by the expression of NF200; data not shown), and beating cardiocytes, identified morphologically by rhythmical contraction of cells within the aggregate.

Molecule: CN[C@@H]1C[C@H]2O[C@@](C)([C@@H]1OC)n1c3ccccc3c3c4c(c5c6ccccc6n2c5c31)C(=O)NC4 [staurosporine]
- Sox10 expression by in situ hybridisation (EBM^9 explants; 25 nM, 48 hours culture): observed in all cells
- morphology of EBM explants (EBM^9 explants; 25 nM, within three hours of seeding): surrounded by a halo of differentiating cells
- concentration required for uniform differentiation (EBM^9 explants; data not shown): greater than 10 nM

Molecule: LIF: cytokine leukaemia inhibitory factor
- morphology and gene expression profile of ES cell aggregates (ES cells [1]): did not duplicate the morphology or gene expression profile of EBM

B1: FGF4: growth factor from the FGF family (protein, UniProt P08620 31-206, looked up)
Fibroblast growth factor 4: APTAPNGTLEAELERRWESLVALSLARLPVAAQPKEAAVQSGAGDYLLGIKRLRRLYCNVGIGFHLQALPDGRIGGAHADTRDSLLELSPVERGVVSIFGVASRFFVAMSSKGKLYGSPFFTDECTFKEILLPNNYNAYESYKYPGMFIALSKNGKTKKGNRVSPTMKVTHFLPRL
- influence on the outcome of differentiation (ES cells [2]): did not influence the outcome of differentiation

Reference: US20030134413A1, “Cell production” (priority 2000, published 2003)
